# Reference: patent US7026469B2, “Compositions and methods of double-targeting virus infections and cancer cells” (Wake Forest University School of Medicine, priority 2000, dated 2006)
# Several values for one entry are separate records, joined by “and”; a condition that tells them apart may be missing. Equal entries are not always repeated. Where two headings read alike, the source gives them in different places.
# Experiments:
# [1] = Cytotoxicity in Vero cell monolayers (cell morphology); type: cell-based, monkey; details: monkey, Vero cell monolayers (monkey kidney cells), 48 hours at 37° C., lowest concentration changing morphology in at least 25% of the cells, read-out: Cytotoxicity (TC50)
# Procedure: To measure cytotoxicity of the compounds, the cell monolayers (described above) were treated with a serial concentration of test compound for 48 hours at 37° C. and visually examined after crystal violet staining by light microscopy for changes in cell morphology (cell rounding, shrinking, detachment) compared to an untreated control culture.
# [2] = test system: herpes simplex virus type 2; experiment: Herpes simplex virus type 2 plaque inhibition in Vero cells; type: cell-based; details: acyclovir in replicate tests; read-out: EC50 against herpes simplex virus type 2
# Procedure: Proof-of-concept of the antiviral activity of the double-targeting PC lipid-AZT conjugate compounds of the invention with respect to herpes simplex virus type 2 was evaluated and compared with that of PC lipid alone and with acyclovir (positive controls). Serial dilutions of PC lipid, PC lipid-AZT conjugate compound, or acyclovir were evaluated for inhibition of the formation of herpes simplex virus type 2 plaques in Vero cells and EC50 values were calculated from the results obtained. Briefly, the tests for anti-herpes simplex virus (HSV) activity and cytotoxicity of the compounds were performed by seeding 8×10^4 monkey kidney cells (Vero) per ml of D-MEM with 10% fetal bovine serum (FBS) in each well of a 12-well dish. The cultures were incubated at 37° C. to form a complete monolayer. To measure anti-HSV activity and effective concentration50 (EC50) each cell monolayer was infected with HSV diluted in PBS-A containing about 100 plaque forming units (PFU) per 0.1 ml. After virus attachment (1 hr., 37° C.) the infected monolayers were overlaid with E-MEM containing 2% FBS and 0.5% methyl cellulose with or without added serial concentrations of test compound. […] The EC50 values were calculated using a computer generated program.
# HIV-1 = HIV-1 syncytial plaque assay in CEM-SS cells; type: cell-based
# Procedure: (§1) The inhibitory effects of PC lipids, non-PC lipid-AZT conjugates, and double-targeting PC lipid-AZT conjugate compounds of the invention on replication of HIV-1 virus in cells was examined using the plaque assay procedure described in Kucera et al. (1990, AIDS Research and Human Retroviruses, 6:491). CEM-SS cells were seeded at 50,000 cells per milliliter in RPMI growth medium as a monolayer in 96-well dishes, inoculated with 50 to 100 plaque forming units of HIV-1 and overlaid with serial dilutions of either PC lipid, non-PC lipid-AZT conjugate, or PC-lipid-AZT conjugate in RPMI-1640 growth medium supplemented with 10% fetal bovine serum. The structures of the tested compounds are described in Table 1. AZT and PC lipids were used as positive controls. […] The cytotoxicity of PC lipids, non-PC lipid-AZT conjugates and double targeting PC lipid-AZT conjugates was assessed using the procedure described in Kucera et al. (1990, AIDS Res. And Human Retrovir., 6:496, and 1998, Antiviral Chemistry and Chemotherapy, 9:160). [drawing 16]
# In the plaque assay, HIV-1 syncytial plaques are seen as large, multicellular foci (10 to 25 nuclei/syncytium) that appear either brown and granular or clear. Because the number of HIV-1 syncytial plaques was correlated with reverse transcriptase (RT) and p24 core antigen activity in the HIV-1 infected cell overlay fluids, the syncytial plaque assay could be used to quantify the amount of infectious virus. Reverse transcriptase activity was assayed according to the procedure described by Poeisz et al. (1980, Proc. Natl. Acad. Sci. U.S.A. 77:7415). The activity of p24 core antigen induced by HIV-1 infection of CEM-SS cells was measured spectrophotometrically using the commercial Coulter enzyme immunoassay (EIA).
# [3] = test system: AZT-resistant clinical isolates of HIV-1; experiment: microbe, parasite or virus in culture; type: cell-based; details: for EC50: mean of 2 to 4 independent tests
# Procedure: as §1
# Evaluation of the clinical isolates to the compounds was performed using the plaque assay procedure described herein in Example 1. The matched pairs of clinical isolates were obtained through the AIDS Research and Reference Reagent Program, NIH, Bethesda, Md.
# [4] = test system: HIV-1 persistently infected H9IIIB cells; experiment: Induction of defective HIV-1 in persistently infected H9IIIB cells (RT activity after infecting fresh CEM-SS cells); type: cell-based; details: RT activity in CEM-SS overlay medium after 7 or 9 days; H9IIIB cells treated with 1.0 μM compound for 14 or 11 days
# Procedure: HIV-1 persistently infected H9IIIB cells were washed twice to remove extracellular HIV-1, resuspended in fresh growth medium with or without 1.0 μM of compound for a total of 14 days. During the treatment period, the cells were subcultured 1:3 three times a week. In addition, on days 3, 7 and 11, the cells were pelleted to remove extracellular HIV-1 before subculture in fresh growth medium with or without the compound. After 14 or 11 days of treatment, the virus was pelleted (100,000×g, 1 hr, 4 C.) from the overlay medium to remove free compound, resuspended in fresh medium without compound and assayed for RT activity. The virus suspension was normalized to 500,000 RT DPM and used to infect fresh CEM-SS cells. The infected CEM-SS cells were incubated for a total of 7 or 9 days, and the overlay medium was harvested and assayed for induction of RT activity. The % inhibition of RT activity was used as a measure of defective virus formation during the treatment period.
# [5] = Cytotoxicity (TC50) of the compounds tested for anti-HIV-1 activity; type: cell-based, human; details: human, CEM-SS cells
# Procedure: as §1
# Friend leukemia virus = details: INK-11 compared with AZT alone; cited from earlier work
# [6] = Oral administration of phospholipid-AZT conjugate in rodents (distribution, half-life); parameters: species or system rodents (mice); details: mouse, in vivo; in rodents; units given within the value; read-out: half-life of AZT alone
EC50 [2],SMILES,CC50 at 48 h [1],Differential Selectivity (HIV-1; DS = ratio of TC50 for cytotoxicity to EC50 for anti-HIV activity),"EC50 (HIV-1; Human immunodeficiency virus 1, CEM-SS, 120 h, read-out: Anti-HIV-1 Activity (EC50))","EC50 ([3]; Human immunodeficiency virus 1, read-out: EC50 Pre-AZT G-762, pre-AZT isolate, patient code G-762)","EC50 ([3]; Human immunodeficiency virus 1, read-out: EC50 Pre-AZT H112-2, pre-AZT isolate, patient code H112-2)",Fold-Increase (G-762 to G-691) ([3]; post-AZT G-691 versus pre-AZT G-762),fold increase in AZT-resistance among HIV-1 clinical isolates ([3]; text summary over both isolate pairs),DPM-Bkg [4],CC50 [5],suppression against RT activity (Friend leukemia virus),half-life [6]
12.5 µM and 14.5 µM and 6.67 µM,"Nc1nc2c(ncn2COCCO)c(=O)[nH]1 [Acyclovir, reference compound]",> 20 µM,–,–,–,–,–,–,–,–,–,–
–,"Cc1cn([C@H]2C[C@H](N=[N+]=[N-])[C@@H](CO)O2)c(=O)[nH]c1=O [AZT, 3′-azido-3′-deoxythymidine, reference compound]",–,411,0.009 µM,0.001 µM,0.002 µM,165,"680- to 1,100 fold",5416 DPM and 6573 DPM,3.7 µM,98%,30 to 60 min
